Bridge positions count the residues as written; N and C are the ends. Peptide text beside a SMILES is read from it.
Biological target: α-chymotrypsin (Bos taurus, UniProt P00766)
Assay: Chymotrypsin inhibitory activity of peptides (AAPFpNA hydrolysis; IC50, Ki, residual activity)
Format: biochemical
Details: for Ki: Ki=IC50/(1+S/Km), Km 0.38 mM; for IC50: chymotrypsin 30 nM, AAPFpNA 0.5 mM
Procedure: The inhibition constants of various synthetic active peptide inhibitors (molecular scaffolds) against seine proteases were measured. The substrates N-succinyl-Ala-Ala-Pro-Phe-p-nitroaniline (AAPFpNA), Nα—Benzoyl-L-arginine-4-nitroaniline hydrochloride (BApNA) and N-succinyl-[…] (AAApNA) are used in competitive binding reaction to determine the inhibitory activities against α-chymotrypsin, bovine trypsin, and porcine pancreatic elastase, respectively. Experiments for α-chymotrypsin and bovine trypsin inhibition were measured in 20 mM CaCl2, 50 mM Tris-HCl buffer (pH 7.8), and that for porcine elastase inhibition was measured in 50 mM Tris-HCl buffer (pH 8.0). The concentration of the peptide was measured using optical density (OD) at 280 nm. The Michaelis constant (Km) of the enzyme hydrolysis substrate is calculated from the initial rate of substrate hydrolysis at 405 nm. The absorbance value of the substrate was measured at 405 nm after complete hydrolysis. All data were processed using nonlinear regression.
• (1) Added a total 190 μL of reaction buffer (20 mM CaCl2, 50 mM Tris-HCl (pH 7.8)) into the 96 well plate, followed by preheating at 37° C. for 15 min. Then added 2 μL of different concentrations of substrates (p-Nitroanilide, pNA, 0.5% in DMSO), and mixed by centrifugation at 500 rpm for 1 min. Finally, the plate was incubated at 37° C. for 20 min, and the absorbance value at 405 nm was measured. In the 200 μL of reaction system, the final concentrations of pNA were 0, 0.025, 0.05, 0.075, 0.1, 0.125, 0.15, 0.25, and 0.3 mM, respectively. Make three repetitions for each concentration and plot the OD405 m value with pNA concentration to obtain the standard curve. • (2) Added a total 190 μL of reaction buffer (20 mM CaCl2, 50 mM Tris-HCl (pH 7.8)) and 8 μL of 0.75 μM chymotrypsin into the 96 well plate, followed by preheating at 37° C. for 5 min. Then added 2 μL of different concentrations of substrates (AAPFpNA, dissolved in DMSO), and mixed by centrifugation at 500 rpm for 1 min. Finally, the plate was incubated at 37° C. for 20 min, and the absorbance value at 405 nm was measured. In the 200 μL of reaction system, the final concentrations of AAPFpNA were 0, 0.125, 0.25, 0.285, 0.33, 0.4, and 0.5 mM, respectively. Make three repetitions for each concentration and plot the OD405 nm value with time to obtain the corresponding curve. Divide the slope of the curve by the slope of the standard curve and the enzyme concentration to obtain the initial velocity V0 (mM/(min*mM protein). Plot the initial velocity V0 with the concentration of substrate AAPFpNA using Prism software, and the Michaelis constant Km value of chymotrypsin hydrolyzing AAPFpNA was obtained.
• (1) Added a total 190 μL of reaction buffer (20 mM CaCl2, 50 mM Tris-HCl (pH 7.8)), different concentrations of anti-chymorypsin peptides (CHs) into the pre-cold 96 well plate, followed by preheating at 37° C. for 5 min and centrifugated at 500 rpm for 1 min and allowed to stand for 4 minutes. Then added 8 μL of 750 nM chymotrypsin and incubated at 37° C. for 10 min, and centrifugated at 500 rpm for 1 min and allowed to stand for 9 minutes. Finally, added 2 μL of 50 mM AAPFpNA, and mixed by centrifugation at 500 rpm for 1 min. The plate was incubated at 37° C. for 90 min, and the absorbance value at 405 nm was measured. Three repetitions were made, and only reaction buffer and substrate were added in the blank control as the minimum absorption value (Min OD405 nm); Only reaction buffer, enzyme and substrate were added in the negative control as the maximum absorption value (Max OD405). • (2) In the 200 μL of reaction system, the final concentrations of chymotrypsin and AAPFpNA were 30 nM and 0.5 mM, respectively. • (3) Data statistics
Residual activity of enzyme (%)=(1−(Max OD405 nm−Sample OD405 nm)/(Max OD405 nm−Min OD405 nm))*100 […]

Compound: CC[C@H](C)[C@@H]1NC(=O)[C@H](CO)NC(=O)[C@H](Cc2ccc(O)cc2)NC(=O)[C@H]([C@@H](C)O)NC(=O)[C@@H](NC(=O)[C@@H](N)CO)CSSC[C@@H](C(=O)N[C@@H](Cc2ccc(O)cc2)C(=O)NCC(=O)O)NC(=O)[C@H](CCC(N)=O)NC(=O)[C@@H]2CCCN2C(=O)[C@@H]2CCCN2C1=O [CH4] (H-SCTYSIPPQCYG-OH; disulfide 2-10; N-terminus and C-terminus assumed)
- Ki: 0.55 µM
- IC50: 1.28 µM
- Residual activity of chymotrypsin (peptide 0.001 μM): 103.2 ± 0.9%
- Residual activity of chymotrypsin (peptide 0.01 μM): 101.8 ± 0.8%
- Residual activity of chymotrypsin (peptide 0.1 μM): 100.7 ± 2.0%
- Residual activity of chymotrypsin (peptide 0.3 μM): 86.7 ± 1.4%
- Residual activity of chymotrypsin (peptide 0.6 μM): 70.4 ± 2.8%
- Residual activity of chymotrypsin (peptide 2.5 μM): 34.6 ± 4.3%
- Residual activity of chymotrypsin (peptide 7.5 μM): 13.8 ± 0.6%
- Residual activity of chymotrypsin (peptide 10 μM): 9.3 ± 1.1%
- Residual activity of chymotrypsin (peptide 100 μM): 0.7 ± 0.1%
- Residual activity of chymotrypsin (peptide 1000 μM): 0.2 ± 0.0%

Compound: CC[C@H](C)[C@@H]1NC(=O)[C@H](CO)NC(=O)[C@H](Cc2ccccc2)NC(=O)[C@H]([C@@H](C)O)NC(=O)CNC(=O)[C@H](Cc2ccccc2)NC(=O)CNC(=O)[C@@H](N)CSSC[C@@H](C(=O)N[C@@H](Cc2ccc(O)cc2)C(=O)NCC(=O)O)NC(=O)[C@H](CCC(N)=O)NC(=O)[C@@H]2CCCN2C(=O)[C@@H]2CCCN2C1=O [CH7] (H-CGFGTFSIPPQCYG-OH; disulfide 1-12; N-terminus and C-terminus assumed)
- inhibitory activity against chymotrypsin (in words): certain inhibitory activity against chymotrypsin
- Ki: 9.65 µM
- IC50: 22.3 µM
- Residual activity of chymotrypsin (peptide 0.01 μM): 100.9 ± 1.3%
- Residual activity of chymotrypsin (peptide 0.1 μM): 98.8 ± 3.9%
- Residual activity of chymotrypsin (peptide 1 μM): 101.7 ± 6.3%
- Residual activity of chymotrypsin (peptide 10 μM): 77.7 ± 2.0%
- Residual activity of chymotrypsin (peptide 25 μM): 46.0 ± 1.0%
- Residual activity of chymotrypsin (peptide 50 μM): 25.8 ± 0.9%
- Residual activity of chymotrypsin (peptide 100 μM): 14.1 ± 0.9%
- Residual activity of chymotrypsin (peptide 300 μM): 4.1 ± 0.1%
- Residual activity of chymotrypsin (peptide 1000 μM): 1.2 ± 0.1%

Compound: CC[C@H](C)[C@@H]1NC(=O)[C@H](CO)NC(=O)[C@H](Cc2ccc(O)cc2)NC(=O)[C@H]([C@@H](C)O)NC(=O)CNC(=O)[C@H](CO)NC(=O)CNC(=O)[C@@H](N)CSSC[C@@H](C(=O)N[C@@H](Cc2ccc(O)cc2)C(=O)NCC(=O)O)NC(=O)[C@H](CCC(N)=O)NC(=O)[C@@H]2CCCN2C(=O)[C@@H]2CCCN2C1=O [CH6] (H-CGSGTYSIPPQCYG-OH; disulfide 1-12; N-terminus and C-terminus assumed)
- IC50: > 50 µM

Compound: CC[C@H](C)[C@@H]1NC(=O)[C@H](CO)NC(=O)[C@H](Cc2ccc(O)cc2)NC(=O)[C@H]([C@@H](C)O)NC(=O)[C@H](C)NC(=O)[C@H](CO)NC(=O)CNC(=O)[C@@H](N)CSSC[C@@H](C(=O)N[C@H](C(=O)NCC(=O)O)C(C)C)NC(=O)[C@H](CCC(N)=O)NC(=O)[C@H](C)NC(=O)[C@@H]2CCCN2C1=O [CH23] (H-CGSATYSIPAQCVG-OH; disulfide 1-12; N-terminus and C-terminus assumed)
- inhibitory activity against chymotrypsin (in words): good inhibitory activity
- Ki: 1.86 µM
- IC50: 4.31 µM

Compound: CSCC[C@@H]1NC(=O)CNC(=O)[C@@H]2CCCN2C(=O)[C@H](CC(=O)O)NC(=O)[C@H](CO)NC(=O)[C@H](Cc2ccccc2)NC(=O)[C@H]([C@@H](C)O)NC(=O)[C@@H](NC(=O)[C@@H](N)CCSC)CSSC[C@@H](C(=O)N[C@@H](CO)C(=O)O)NC1=O [CH50] (H-MCTFSDPGMCS-OH; disulfide 2-10; N-terminus and C-terminus assumed)
- IC50: > 50 µM

Compound: CC[C@H](C)[C@@H]1NC(=O)[C@H](Cc2ccc(O)cc2)NC(=O)[C@H](C)NC(=O)[C@H](CCSC)NC(=O)[C@H](C)NC(=O)[C@H](CCC(=O)O)NC(=O)CNC(=O)[C@@H]2CCCN2C(=O)[C@@H](N)CSSC[C@@H](C(=O)N[C@@H](Cc2ccccc2)C(=O)O)NC(=O)[C@H](CO)NC(=O)[C@H](CCCNC(=N)N)NC1=O [CH28] (H-CPGEAMAYIRSCF-OH; disulfide 1-12; N-terminus and C-terminus assumed)
- IC50: > 50 µM

Compound: CSCC[C@@H]1NC(=O)[C@H](CO)NC(=O)[C@H](Cc2ccc(O)cc2)NC(=O)[C@H]([C@@H](C)O)NC(=O)[C@@H](NC(=O)[C@@H](N)Cc2ccccc2)CSSC[C@@H](C(=O)N[C@H](C(=O)O)C(C)C)NC(=O)[C@H](Cc2c[nH]cn2)NC(=O)[C@@H]2CCCN2C(=O)[C@@H]2CCCN2C1=O [CH41] (H-FCTYSMPPHCV-OH; disulfide 2-10; N-terminus and C-terminus assumed)
- Ki: 1.12 µM
- IC50: 2.6 µM

Compound: CC[C@H](C)[C@@H]1NC(=O)[C@@H]2CCCN2C(=O)[C@@H]2CCCN2C(=O)[C@H]([C@@H](C)CC)NC(=O)[C@H](CO)NC(=O)[C@H](Cc2ccccc2)NC(=O)[C@H]([C@@H](C)O)NC(=O)[C@H](C)NC(=O)[C@H]([C@@H](C)O)NC(=O)CNC(=O)[C@@H](N)CSSC[C@@H](C(=O)N[C@@H](CC(N)=O)C(=O)O)NC1=O [CH27] (H-CGTATFSIPPICN-OH; disulfide 1-12; N-terminus and C-terminus assumed)
- inhibitory activity against chymotrypsin (in words): certain inhibitory activity
- Ki: 2.88 µM
- IC50: 6.66 µM
- Residual activity of chymotrypsin (peptide 0.01 μM): 102.7 ± 2.4%
- Residual activity of chymotrypsin (peptide 0.1 μM): 105.3 ± 0.9%
- Residual activity of chymotrypsin (peptide 1 μM): 106.0 ± 0.7%
- Residual activity of chymotrypsin (peptide 3 μM): 86.8 ± 1.5%
- Residual activity of chymotrypsin (peptide 6 μM): 64.9 ± 3.1%
- Residual activity of chymotrypsin (peptide 10 μM): 26.2 ± 2.4%
- Residual activity of chymotrypsin (peptide 25 μM): 15.5 ± 0.3%
- Residual activity of chymotrypsin (peptide 100 μM): 2.9 ± 0.3%
- Residual activity of chymotrypsin (peptide 300 μM): 1.2 ± 0.0%
- Residual activity of chymotrypsin (peptide 1000 μM): 0.7 ± 0.1%

Compound: CC[C@H](C)[C@@H]1NC(=O)[C@@H]2CCCN2C(=O)[C@@H]2CCCN2C(=O)[C@H]([C@@H](C)CC)NC(=O)[C@H](CO)NC(=O)[C@H](Cc2ccccc2)NC(=O)[C@H]([C@@H](C)O)NC(=O)[C@@H](NC(=O)[C@@H](NC(=O)CN)[C@@H](C)O)CSSC[C@@H](C(=O)N[C@@H](CC(N)=O)C(=O)O)NC1=O [CH26] (H-GTCTFSIPPICN-OH; disulfide 3-11; C-terminus assumed)
- inhibitory activity against chymotrypsin (in words): good inhibitory activity

Compound: CC[C@H](C)[C@@H]1NC(=O)[C@H](CO)NC(=O)[C@H](Cc2ccc(O)cc2)NC(=O)[C@H]([C@@H](C)O)NC(=O)[C@@H](NC(=O)[C@@H](N)Cc2ccccc2)CSSC[C@@H](C(=O)N[C@@H](Cc2ccc(O)cc2)C(=O)O)NC(=O)[C@H](CCC(N)=O)NC(=O)[C@@H]2CCCN2C(=O)[C@@H]2CCCN2C1=O [CH33] (H-FCTYSIPPQCY-OH; disulfide 2-10; C-terminus assumed)
- inhibitory activity against chymotrypsin (in words): good inhibitory activity

Compound: CC[C@H](C)[C@@H]1NC(=O)[C@H](CO)NC(=O)[C@H](CC(C)C)NC(=O)[C@H]([C@@H](C)O)NC(=O)[C@@H](NC(=O)[C@@H](N)Cc2ccccc2)CSSC[C@@H](C(=O)N[C@@H](Cc2ccc(O)cc2)C(=O)NCC(=O)O)NC(=O)[C@H](CCC(N)=O)NC(=O)[C@@H]2CCCN2C(=O)[C@@H]2CCCN2C1=O [CH19] (H-FCTLSIPPQCYG-OH; disulfide 2-10; N-terminus and C-terminus assumed)
- Ki: 4.87 µM
- IC50: 11.3 µM

Source: patent US20230416329A1, “A PEPTIDE WITH DISULFIDE BONDS AND INHIBITORY ACTIVITY AGAINST SERINE PROTEASES, DERIVED HYBRID PEPTIDES THEREOF, AND USES THEREOF” (INSTITUTE OF MATERIA MEDICA , CHINESE ACADEMY OF MEDICAL …, priority 2020, published 2023)
